Experimental findings from the OligoGym collection are described below.

HELM strings list units from the 5' end as sugar, base in round brackets, then linkage (d deoxyribose, r ribose, m 2'-O-methyl, p phosphodiester). Strings are as the collection lists them, not checked against the first reports. ss, as = sense and antisense strand; [lna] = locked nucleic acid (LNA); [una] = unlocked nucleic acid; [hna] = hexitol nucleic acid; [s4r] = 4'-thioribose; [fl2r] = 2'-fluoro
Also: test system not given here.

The conditions of the series: siRNA.
The substance “RNA1{r(G)p.r(A)p.r(C)p.r(G)p.r(U)p.r(A)p.r(A)p.r(A)p.r(C)p.r(G)p.r(G)p.r(C)p.r(C)p.r(A)p.r(C)p.r(A)p.r(A)p.r(G)p.[hna](U)p.[hna](U)p.r(C)}|RNA2{r(A)p.m(C)p.r(U)p.r(U)p.r(G)p.r(U)p.r(G)p.r(G)p.r(C)p.r(C)p.r(G)p.r(U)p.r(U)p.r(U)p.r(A)p.r(C)p.r(G)p.r(U)p.r(C)p.r(G)p.r(C)}$$$RNA1{StrandType:ss}|RNA2{StrandType:as}$” came in with a target mRNA knockdown of 57%.

“RNA1{r(C)p.r(C)p.r(G)p.r(A)p.r(A)p.r(G)p.r(A)p.r(C)p.r(G)p.r(A)p.r(A)p.r(G)p.r(C)p.[fl2r](U)p.r(A)p.[fl2r](U)p.r(G)p.r(A)p.r(A)p.r(T)p.r(T)}|RNA2{r(U)p.r(U)p.[fl2r](C)p.r(A)p.[fl2r](U)p.r(A)p.r(G)p.r(C)p.r(U)p.r(U)p.r(C)p.r(G)p.r(U)p.r(C)p.r(U)p.r(U)p.r(C)p.r(G)p.r(G)p.r(T)p.r(T)}$$$RNA1{StrandType:ss}|RNA2{StrandType:as}$” registered a target mRNA knockdown of 46%.

On to “RNA1{m(G)p.r(C)p.m(U)p.r(G)p.m(A)p.r(G)p.m(G)p.r(A)p.m(A)p.r(A)p.m(G)p.r(G)p.m(G)p.r(A)p.m(C)p.r(A)p.m(U)p.r(C)p.m(U)p.r(T)p.r(T)}|RNA2{r(A)p.r(G)p.r(A)p.r(U)p.r(G)p.r(U)p.r(C)p.r(C)p.r(C)p.r(U)p.r(U)p.r(U)p.r(C)p.r(C)p.r(U)p.r(C)p.r(A)p.r(G)p.r(C)p.r(T)p.r(T)}$$$RNA1{StrandType:ss}|RNA2{StrandType:as}$”, for which the target mRNA knockdown was found to be 61%.

The substance “RNA1{r(C)p.r(U)p.r(U)p.r(A)p.r(C)p.r(G)p.r(C)p.r(U)p.r(G)p.r(A)p.r(G)p.r(U)p.r(A)p.r(C)p.r(U)p.r(U)p.r(C)p.r(G)p.r(A)p.r(T)p.r(T)}|RNA2{r(T)p.r(C)p.r(G)p.r(A)p.[lna](A)p.r(G)p.r(U)p.r(A)p.r(C)p.r(U)p.r(C)p.r(A)p.r(G)p.r(C)p.r(G)p.r(U)p.r(A)p.r(A)p.r(G)p.[lna](T)p.[lna](T)}$$$RNA1{StrandType:ss}|RNA2{StrandType:as}$” came in with a target mRNA knockdown of 88%.

With “RNA1{r(G)p.r(U)p.r(A)p.r(U)p.r(G)p.r(A)p.r(C)p.r(C)p.r(G)p.r(A)p.r(C)p.r(U)p.r(A)p.r(C)p.r(G)p.r(C)p.r(G)p.r(U)p.r(A)p.r(T)p.r(T)}|RNA2{r(U)p.r(U)p.r(C)p.r(A)p.r(G)p.r(U)p.r(G)p.r(U)p.r(G)p.r(A)p.r(U)p.r(G)p.r(A)p.r(C)p.r(A)p.[una](C)p.r(U)p.r(U)p.r(G)p.r(T)p.r(T)}$$$RNA1{StrandType:ss}|RNA2{StrandType:as}$”, the target mRNA knockdown stood at 29%.

“RNA1{[s4r](A)p.[s4r](A)p.[s4r](A)p.[s4r](C)p.r(A)p.r(U)p.r(G)p.r(C)p.r(A)p.r(G)p.r(A)p.r(A)p.r(A)p.r(A)p.r(U)p.[s4r](G)p.[s4r](C)p.[s4r](U)p.[s4r](G)p.r(T)p.r(T)}|RNA2{r(C)p.r(A)p.r(G)p.r(C)p.r(A)p.r(U)p.r(U)p.r(U)p.r(U)p.r(C)p.r(U)p.r(G)p.r(C)p.r(A)p.r(U)p.r(G)p.r(U)p.[s4r](U)p.[s4r](U)p.r(T)p.r(T)}$$$RNA1{StrandType:ss}|RNA2{StrandType:as}$” returned a target mRNA knockdown of 85.5%.

Substance “RNA1{m(A)p.r(U)p.m(C)p.r(G)p.m(U)p.r(C)p.m(G)p.r(U)p.m(C)p.r(A)p.m(G)p.r(G)p.m(G)p.m(U)p.r(A)p.m(A)p.r(G)p.m(G)p.r(U)p.r(T)p.r(T)}|RNA2{r(A)p.r(C)p.r(C)p.r(U)p.r(U)p.r(A)p.r(C)p.r(C)p.r(C)p.r(U)p.r(G)p.r(A)p.r(C)p.r(G)p.m(A)p.r(C)p.m(G)p.r(A)p.m(U)p.r(T)p.r(T)}$$$RNA1{StrandType:ss}|RNA2{StrandType:as}$” returned a target mRNA knockdown of 34%.

In turn, “RNA1{r(A)p.r(U)p.m(A)p.r(C)p.r(U)p.r(U)p.r(G)p.r(G)p.r(C)p.r(G)p.r(G)p.r(G)p.r(C)p.r(U)p.r(C)p.r(U)p.r(U)p.r(U)p.r(C)p.r(T)p.r(T)}|RNA2{r(G)p.r(A)p.r(A)p.r(A)p.r(G)p.r(A)p.r(G)p.r(C)p.r(C)p.r(C)p.r(G)p.r(C)p.m(C)p.r(A)p.r(A)p.r(G)p.r(U)p.r(A)p.r(U)p.r(T)p.r(T)}$$$RNA1{StrandType:ss}|RNA2{StrandType:as}$” displayed a target mRNA knockdown of 72%.

For the substance “RNA1{[fl2r](A)p.r(C)p.[fl2r](A)p.r(U)p.[fl2r](A)p.r(G)p.[fl2r](A)p.r(G)p.[fl2r](G)p.r(A)p.[fl2r](A)p.r(G)p.r(A)p.r(C)p.r(G)p.r(C)p.r(G)p.r(G)p.r(A)p.r(T)p.r(T)}|RNA2{[fl2r](U)p.r(C)p.[fl2r](C)p.r(G)p.[fl2r](C)p.r(G)p.[fl2r](U)p.r(C)p.[fl2r](U)p.r(U)p.[fl2r](C)p.r(C)p.[fl2r](U)p.r(C)p.[fl2r](U)p.r(A)p.[fl2r](U)p.r(G)p.r(U)p.r(T)p.r(T)}$$$RNA1{StrandType:ss}|RNA2{StrandType:as}$”, the target mRNA knockdown turned out to be 57%.

With “RNA1{m(A)p.r(A)p.m(U)p.r(A)p.m(A)p.r(G)p.m(C)p.r(A)p.m(G)p.r(C)p.m(U)p.r(C)p.m(G)p.r(C)p.m(G)p.r(C)p.m(U)p.r(C)p.m(C)p.r(T)p.r(T)}|RNA2{r(G)p.r(G)p.m(A)p.r(G)p.r(C)p.r(G)p.r(C)p.r(G)p.m(A)p.r(G)p.r(C)p.r(U)p.r(G)p.r(C)p.r(U)p.r(U)p.m(A)p.r(U)p.r(U)p.r(T)p.r(T)}$$$RNA1{StrandType:ss}|RNA2{StrandType:as}$”, the target mRNA knockdown is 32%.

As for “RNA1{m(A)p.m(A)p.r(U)p.m(A)p.m(A)p.m(G)p.r(C)p.m(A)p.m(G)p.r(C)p.r(U)p.r(C)p.m(G)p.r(C)p.m(G)p.r(C)p.r(U)p.r(C)p.r(C)p.r(T)p.r(T)}|RNA2{r(G)p.r(G)p.r(A)p.r(G)p.r(C)p.r(G)p.r(C)p.r(G)p.r(A)p.r(G)p.r(C)p.r(U)p.r(G)p.r(C)p.r(U)p.r(U)p.r(A)p.r(U)p.r(U)p.r(T)p.r(T)}$$$RNA1{StrandType:ss}|RNA2{StrandType:as}$”, the target mRNA knockdown amounted to 64%.

“RNA1{[fl2r](A)p.r(G)p.r(A)p.[fl2r](G)p.r(A)p.[fl2r](A)p.r(G)p.[fl2r](G)p.[fl2r](G)p.r(C)p.r(G)p.[fl2r](U)p.r(C)p.r(U)p.r(C)p.[fl2r](U)p.r(A)p.[fl2r](C)p.r(A)p.r(T)p.r(T)}|RNA2{r(U)p.r(G)p.r(U)p.r(A)p.r(G)p.r(A)p.r(G)p.r(A)p.r(C)p.r(G)p.r(C)p.r(C)p.r(C)p.r(U)p.r(U)p.r(C)p.r(U)p.r(C)p.r(U)p.r(T)p.r(T)}$$$RNA1{StrandType:ss}|RNA2{StrandType:as}$” yielded a target mRNA knockdown of 75%.

On to “RNA1{r(A)p.m(U)p.r(A)p.r(C)p.r(U)p.m(U)p.r(G)p.r(G)p.r(C)p.m(G)p.r(G)p.r(G)p.r(C)p.r(U)p.r(C)p.r(U)p.r(U)p.r(U)p.r(C)p.r(T)p.r(T)}|RNA2{r(G)p.r(A)p.r(A)p.r(A)p.r(G)p.r(A)p.r(G)p.r(C)p.r(C)p.r(C)p.r(G)p.r(C)p.m(C)p.r(A)p.r(A)p.r(G)p.m(U)p.r(A)p.r(U)p.r(T)p.r(T)}$$$RNA1{StrandType:ss}|RNA2{StrandType:as}$”, for which the target mRNA knockdown amounted to 42%.

“RNA1{r(C)p.r(U)p.r(C)p.m(U)p.r(G)p.r(G)p.r(C)p.r(C)p.r(U)p.r(U)p.r(U)p.r(C)p.r(U)p.r(C)p.r(U)p.r(C)p.m(U)p.r(A)p.r(G)p.r(T)p.r(T)}|RNA2{r(C)p.r(U)p.r(A)p.r(G)p.r(A)p.r(G)p.r(A)p.r(G)p.r(A)p.r(A)p.r(A)p.r(G)p.r(G)p.r(C)p.m(C)p.r(A)p.r(G)p.r(A)p.r(G)p.r(T)p.r(T)}$$$RNA1{StrandType:ss}|RNA2{StrandType:as}$” came in with a target mRNA knockdown of 45%.

For “RNA1{r(A)p.r(G)p.r(A)p.r(A)p.r(G)p.r(G)p.r(A)p.m(C)p.m(U)p.r(A)p.m(C)p.m(U)p.r(A)p.r(A)p.m(C)p.m(C)p.m(U)p.m(C)p.m(C)p.r(T)p.r(T)}|RNA2{r(G)p.r(G)p.r(A)p.r(G)p.r(G)p.r(U)p.r(U)p.r(A)p.r(G)p.r(U)p.r(A)p.r(G)p.r(U)p.r(C)p.r(C)p.r(U)p.r(U)p.r(C)p.r(U)p.r(T)p.r(T)}$$$RNA1{StrandType:ss}|RNA2{StrandType:as}$”, the target mRNA knockdown was determined as 80%.

On to “RNA1{[fl2r](C)p.r(U)p.[fl2r](A)p.r(G)p.[fl2r](A)p.r(G)p.[fl2r](G)p.r(A)p.[fl2r](U)p.r(C)p.[fl2r](U)p.r(U)p.[fl2r](G)p.r(A)p.[fl2r](A)p.r(G)p.[fl2r](A)p.r(C)p.r(C)p.r(T)p.r(T)}|RNA2{r(G)p.r(G)p.r(U)p.r(C)p.r(U)p.r(U)p.r(C)p.r(A)p.r(A)p.r(G)p.r(A)p.r(U)p.r(C)p.r(C)p.r(U)p.r(C)p.r(U)p.r(A)p.r(G)p.r(T)p.r(T)}$$$RNA1{StrandType:ss}|RNA2{StrandType:as}$”, for which the target mRNA knockdown came out at 61%.

Consider “RNA1{r(G)p.r(A)p.m(U)p.r(A)p.r(G)p.r(G)p.r(A)p.r(A)p.r(G)p.r(G)p.r(G)p.m(G)p.r(C)p.r(U)p.r(U)p.m(C)p.r(A)p.r(G)p.r(C)p.r(T)p.r(T)}|RNA2{r(G)p.r(C)p.m(U)p.r(G)p.r(A)p.r(A)p.r(G)p.r(C)p.r(C)p.r(C)p.r(C)p.r(U)p.r(U)p.r(C)p.r(C)p.m(U)p.r(A)p.r(U)p.r(C)p.r(T)p.r(T)}$$$RNA1{StrandType:ss}|RNA2{StrandType:as}$”, for which the target mRNA knockdown was 42%.

Substance “RNA1{[fl2r](C)p.r(C)p.[fl2r](G)p.r(A)p.[fl2r](A)p.r(G)p.[fl2r](A)p.r(C)p.[fl2r](G)p.r(A)p.[fl2r](A)p.r(G)p.[fl2r](C)p.r(U)p.[fl2r](A)p.r(U)p.[fl2r](G)p.r(A)p.[fl2r](A)p.r(T)p.r(T)}|RNA2{r(U)p.r(U)p.r(C)p.r(A)p.r(U)p.r(A)p.[fl2r](G)p.r(C)p.r(U)p.r(U)p.r(C)p.[fl2r](G)p.r(U)p.r(C)p.r(U)p.r(U)p.r(C)p.[fl2r](G)p.[fl2r](G)p.r(T)p.r(T)}$$$RNA1{StrandType:ss}|RNA2{StrandType:as}$” showed a target mRNA knockdown of 23%.

In turn, “RNA1{r(C)p.r(C)p.r(C)p.r(C)p.m(A)p.m(G)p.m(G)p.m(U)p.m(A)p.m(A)p.m(C)p.r(G)p.r(A)p.r(U)p.r(U)p.r(U)p.r(U)p.r(C)p.r(U)p.r(T)p.r(T)}|RNA2{r(A)p.r(G)p.r(A)p.r(A)p.r(A)p.r(A)p.r(U)p.r(C)p.r(G)p.r(U)p.r(U)p.r(A)p.r(C)p.r(C)p.r(U)p.r(G)p.r(G)p.r(G)p.r(G)p.r(T)p.r(T)}$$$RNA1{StrandType:ss}|RNA2{StrandType:as}$” yielded a target mRNA knockdown of 79%.
